Assay results from ChEMBL document CHEMBL1133927, “Antimalarial t-butylperoxyamines” (Bioorg Med Chem Lett, 2001).
Calls of active or inactive are those of the source. No cut-off for these calls is given here.

How the values were obtained:
Plasmodium falciparum [1] = assay: (§1) In vitro schizont maturation inhibition for chloroquine-sensitive Plasmodium falciparum FSH 14; type: functional
Mus musculus [2] = assay: In vivo antimalarial activity against Plasmodium berghei in mice (Mus musculus); In active; type: functional, organism-based
Plasmodium falciparum [3] = assay: (§2) In vitro schizont maturation inhibition for chloroquine-sensitive Plasmodium falciparum FJB D9; type: functional, organism-based
Plasmodium falciparum [4] = assay: as §2; type: functional
Plasmodium falciparum [5] = assay: as §1; type: functional, organism-based
Plasmodium falciparum [6] = assay: (§3) In vitro total parasite growth inhibition for chloroquine-sensitive Plasmodium falciparum FJB D9; type: functional
Plasmodium falciparum [7] = assay: as §3; type: functional, organism-based
Mus musculus [8] = assay: Mean survival time of mice (Mus musculus) infected with Plasmodium berghei after administration of compound at the dose of 40 mg/kg; type: functional
Mus musculus [9] = assay: Mean survival time of mice (Mus musculus) infected with Plasmodium berghei after administration of compound at the dose of 160 mg/kg; type: functional
Plasmodium falciparum [10] = assay: (§4) In vitro total parasite growth inhibition for chloroquine-sensitive Plasmodium falciparum FSH 14; type: functional
Mus musculus [11] = assay: Mean survival time of mice (Mus musculus) infected with Plasmodium berghei after administration of compound at the dose of 20 mg/kg; type: functional
Mus musculus [12] = assay: Mean survival time of mice (Mus musculus) infected with Plasmodium berghei after administration of compound at the dose of 80 mg/kg; type: functional
Plasmodium falciparum [13] = assay: as §4; type: functional, organism-based
Mus musculus [14] = assay: In vivo antimalarial activity against Plasmodium berghei in mice (Mus musculus); Active at 80 and 160 mg/kg; type: functional, organism-based; design: dose 160 mg/kg
Mus musculus [15] = assay: In vivo antimalarial activity against Plasmodium berghei in mice (Mus musculus); Active at 160 mg/kg; type: functional, organism-based; design: dose 160 mg/kg
Mus musculus [16] = assay: In vivo antimalarial activity against Plasmodium berghei in mice (Mus musculus); Inactive; type: functional, organism-based
Mus musculus [17] = assay: In vivo antimalarial activity against Plasmodium berghei in mice (Mus musculus); Active from 40 mg/kg; type: functional, organism-based; design: dose 40 mg/kg

| SMILES | IC90 (Plasmodium falciparum [1]) [uM well-1] | Activity (Mus musculus [2]) | IC50 (Plasmodium falciparum [3]) [uM well-1] | IC90 (Plasmodium falciparum [4]) [uM well-1] | IC50 (Plasmodium falciparum [5]) [uM well-1] | IC90 (Plasmodium falciparum [6]) [uM well-1] | IC50 (Plasmodium falciparum [7]) [uM well-1] | Mean survival time (Mus musculus [8]) [days] | Mean survival time (Mus musculus [9]) [days] | IC90 (Plasmodium falciparum [10]) [uM well-1] | Mean survival time (Mus musculus [11]) [days] | Mean survival time (Mus musculus [12]) [days] | IC50 (Plasmodium falciparum [13]) [uM well-1] | Activity (Mus musculus [14]) | Activity (Mus musculus [15]) | Activity (Mus musculus [16]) | Activity (Mus musculus [17]) |
| --- | --- | --- | --- | --- | --- | --- | --- | --- | --- | --- | --- | --- | --- | --- | --- | --- | --- |
| COC1=CC=C2[C@H]3Cc4ccc(OC)c5c4[C@@]2(CCN3COOC(C)(C)C)[C@H]1O5 | 0.92 | inactive | 0.135 | 0.47 | 0.5 | 6.4 | 1.8 | 40 | 7.2 | 5 | 5.2 | 6.8 | 0.45 | – | – | – | – |
| CC(C)(C)OOCN(CCO)CCO | >25 | – | 22 | >25 | 10 | >25 | > 25 | 11.6 | 14 | >25 | 10.2 | 12.8 | > 25 | Active | – | – | – |
| CC(C)(C)OOCN1CCCC1 | >25 | – | > 25 | >25 | > 25 | >25 | > 25 | 7 | 11.8 | >25 | 5.4 | 9.8 | > 25 | – | Active | – | – |
| CC(C)(C)OOCN(Cc1ccccc1)Cc1cccs1 | 11.5 | – | 0.9 | 6 | 0.5 | 4.8 | 2.7 | 6.6 | 14 | 12 | 5.8 | 10.2 | 2.2 | – | Active | – | – |
| CC(C)(C)OOCN1CCCCC1 | 24 | – | 3.6 | 22.5 | 2.9 | >25 | 5.5 | 6.6 | 10.2 | >25 | 5.2 | 8.2 | 5 | – | – | inactive | – |
| CCN(CC)COOC(C)(C)C | >25 | – | > 25 | >25 | > 25 | >25 | > 25 | 8.4 | 12.2 | >25 | 7.2 | 9.4 | > 25 | – | – | inactive | – |
| C[C@@H]1CC[C@H]2[C@@H](C)C(=O)O[C@@H]3O[C@@]4(C)CC[C@@H]1[C@]32OO4 [ARTEMISININ] | 0.028 | – | 0.01 | 0.028 | 0.01 | 0.03 | 0.015 | – | – | 0.029 | 10.8 | – | 0.01 | – | – | – | Active |
| CC(C)=CCCC(C)CCN(COOC(C)(C)C)Cc1ccccc1 (stereo not drawn) | 10 | – | 1.6 | 9 | 1.6 | 10 | 4.4 | 6.8 | 12.2 | 12 | 5.2 | 10.8 | 2.5 | – | Active | – | – |
| CC(C)(C)OOCN(Cc1ccccc1)Cc1ccco1 | 4.5 | – | 1.45 | 2.8 | 1.35 | 5.5 | 2.1 | 7.2 | 12 | 5.4 | 6.4 | 10.8 | 2.25 | – | – | inactive | – |
| CC(C)(C)OOCN(C1CCCCC1)C1CCCCC1 | >25 | – | 1.5 | 21 | 2.1 | 25 | 5 | 8.6 | 13.4 | >25 | 7.6 | 9.8 | 5 | – | Active | – | – |
| CC(C)(C)OOCN1CCOCC1 | 2.9 | – | 0.058 | 2.6 | 0.064 | 3 | 0.15 | 7.6 | 11.4 | 2.15 | 6.8 | 8.8 | 0.16 | – | – | inactive | – |
| CC(C)=CCCC(C)CCN(CCO)COOC(C)(C)C (stereo not drawn) | >25 | – | 3.2 | >25 | 1.4 | >25 | 7.8 | 7.3 | 15 | >25 | 6.2 | 11.2 | 3.8 | – | Active | – | – |
